Experimental data as given in patent US20150111815A1, “NOVEL CYCLOSPORIN DERIVATIVES FOR THE TREATMENT AND PREVENTION OF VIRAL INFECTIONS” (S&T Global Inc., priority 2011, published 2015).
Like-named read-outs stand apart in the source and are kept apart here.

How the values were obtained:
HCV = settings: reported in Hopkins, S. et al., 2010; read-out: in vitro anti-HCV activity (EC50); cited from earlier work
[1] = system: HCV replicon in cell line ET (luc-ubi-neo/ET), Huh7 human hepatoma cells; assay: HCV subgenomic replicon assay (luciferase end point); format: cell-based
Description: The anti-HCV activity of cyclosporine derivatives were evaluated in the HCV subgenomic replicon assay. The assay use the cell line ET (luc-ubi-neo/ET), which is a Huh7 human hepatoma cell line harboring an HCV replicon with a stable luciferase (Luc) reporter. HCV RNA replication was assessed by quantifying HCV replicon-derived luciferase activity. The antiviral activity of cyclosporine analogs were evaluated after drug treatment, the EC 50 and EC 90 were determined in subsequent assessments by using the luciferase end point (Krieger, N., et al., 2001, J. Virol. 75, 4614-4624; Pietschmann, T., et al., 2002, J. Virol. 76, 4008-4021; each of which is incorporated herein by reference).

[2] = HCV replicon-derived luciferase activity, Huh7 ET cells, read-out: Antiviral activity: IC50

Row | Compound | IC50 [1, 2] | other results
1 | C/C=C/C[C@@H](C)[C@@H](O)[C@H]1C(=O)N[C@@H](CC)C(=O)N(C)[C@H](SCCN(C)C)C(=O)N(C)[C@@H](CC(C)(C)O)C(=O)N[C@@H](C(C)C)C(=O)N(C)[C@@H](CC(C)C)C(=O)N[C@@H](C)C(=O)N[C@H](C)C(=O)N(C)[C@@H](CC(C)C)C(=O)N(C)[C@@H](CC(C)C)C(=O)N(C)[C@@H](C(C)C)C(=O)N1C [SCY-635] | – | EC50 (HCV): 100 nM
2 | C/C=C/C[C@@H](C)[C@@H](O)[C@H]1C(=O)N[C@@H](CC)C(=O)N(C)C(CCCN(C)C)C(=O)N(C)[C@@H](CC(C)C)C(=O)N[C@@H](C(C)C)C(=O)N(C)[C@@H](CC(C)C)C(=O)N[C@@H](C)C(=O)N[C@H](C)C(=O)N(C)[C@@H](CC(C)C)C(=O)N(C)[C@@H](CC(C)C)C(=O)N(C)[C@@H](C(C)C)C(=O)N1C (stereo partly drawn) [[(R,S)-3-(N,N-Dimethylamino)propyl-Sar]-3-cyclosporin] | < 1.5 µM | –
3 | [(S)-2-(N,N-Diethylamino)ethyl-Sar]-3-cyclosporin | < 5 µM | –
4 | C/C=C/C[C@@H](C)[C@@H](O)[C@H]1C(=O)N[C@@H](CC)C(=O)N(C)[C@H](CCN(CC)CC)C(=O)N(C)[C@@H](CC(C)C)C(=O)N[C@@H](C(C)C)C(=O)N(C)[C@@H](CC(C)C)C(=O)N[C@@H](C)C(=O)N[C@H](C)C(=O)N(C)[C@@H](CC(C)C)C(=O)N(C)[C@@H](CC(C)C)C(=O)N(C)[C@@H](C(C)C)C(=O)N1C [Example 25, [(R)-2-(N,N-Diethylamino)ethyl-Sar]-3-cyclosporin] | – | IC50 ([1]; Hepatitis C virus, Huh-7, read-out: Antiviral activity: IC50 (μM)): < 0.25 µM
